Data reported in US20140234373A1, “Methods of Promoting Immune Tolerance” (Georgia Regents University, priority 2011, published 2014).

Tests used:
[1] = test system: OVA-specific OT-2 T cells; test: In vivo suppression assay, OT-2 T cell responses to OVA immunization; details: oral 1MT with pDNA/PEI, OVA-immunized B6 mice
Experimental: CFSE-labeled OVA-specific T cells from OT-1 or OT-2 donor mice were injected (i/v) into recipient B6 mice at least 1 day before immunization. CFSE labeling was performed by incubating MACS-enriched splenic CD8+ (OT-1) or CD4+ (OT-2) T cells at ˜10×10^6 cells/ml in PBS with 2 μM CFSE at 37° C. for 15 mins Cells were washed in PBS and injected into recipients (i/v). Mice were then immunized with […] erythrocyte-free spleen cells from Act-mOVA transgenic mice (s/c), and treated with pDNA/PEI nanoparticles and oral 1MT as indicated in FIG. 3.
Cells were stained with the following antibodies; anti-CD4 (clone RM4-5), anti-Thy1.1 (clone OX-7), anti-NK1.1 (clone PK136), anti-CD49b (clone DX5), anti-IFNγ (clone XMG1.2) from Pharmingen-BD-Biosciences (San Jose, Calif.), and analyzed using a LSR2 flow cytometer (Becton-Dickinson). CFSE was purchased from Invitrogen. For detecting intracellular IFNγ, cells were surface stained with anti-NK1.1 and anti-DX5, fixed with cytofix/cytoperm, washed with Perm/Wash solution (BD Bioscience) and stained with anti-IFNγ. Some cells were incubated in RPMI with 1 μM of brefeldin (BD Bioscience) for 3 hrs. with no further stimulations to accumulate cytokine before staining. For detecting IFNγ in OT-2 T cells, dLN cells were stimulated with PMA/ionomycin for 2 hrs. with brefeldin. […]

[2] = test system: OT-1 T cells; test: DC suppression assay (splenic DCs from treated mice with OT-1 T cells); format: in vivo; details: DCs from pDNA/PEI-treated B6 mice, 1MT 100 μM
Experimental: MACS-enriched splenic DCs (CD11c+) and Tregs (CD4+CD25+) were isolated according to manufacturer's instructions, except that cells were incubated with beads at RT (Magnetic Cell Separation Technology (MACS)—Miltenyi Biotec Inc., Auburn, Calif.). T cell stimulatory activity of DCs was assessed by culturing graded numbers of DCs (X-Y) with responder (MACS-enriched) CD8+ T cells from OT-1 (+SIINFEKL peptide) (SEQ ID NO:1) TCR-Tg mice+/−1MT as described (11). Suppressor activity of splenic Tregs was assessed by culturing graded numbers of Tregs with responder A1 (H-Y-specific) T cells, APCs (female CBA) and male (H-Y) peptide; a cocktail of anti-PD-1, anti-PD-L1, and anti-PD-L2 mAbs was added to some cultures to block PD-1-PD-L interactions as described (Baban, et al., J Immunol, 183:2475-2483 (2009), Sharma, et al., J Clin Invest 117:2570-2582 (2007)).
Assays to detect IDO-dependent T cell regulatory phenotypes in splenic DCs were performed as previously described. Briefly, MACS enriched (CD11c^+) spleen cells were cultured for 72 hours with MACS-enriched CD8α^+ T cells from OT-1 TCR transgenic mice and OVA257-264 peptide (SIINFEKL (SEQ ID NO:1)), 100 nM). Proliferation was assessed by adding 1 μCi methyl-[^3H]-thymidine for the final 6 hours and quantified using a BetaPlate counter (Wallac). […] Proliferation was assessed as described above. […]

[3] = test system: B6 mice (mBSA-induced arthritis); test: mBSA-induced arthritis model; format: in vivo; details: local joint inflammation
Experimental: B6 mice were sensitized with methylated BSA (mBSA, s/c, […] in CFA (day 0). Booster injections of mBSA in IFA were given on days 7 and 14, and arthritis was induced on day 21 by intra-articular injection of mBSA (10 μg in PBS, challenge).
Arthritis severity was evaluated by measuring joint swelling, neutrophil infiltration, and histological analysis as described (Lemos, et al., Proc Natl Acad Sci USA, 106:5954-5959 (2009)). In brief, joint swelling was assessed using a vernier caliper, and was expressed as the increase in diameter (mm) relative to non-inflamed joints in each mouse at experimental starting points. Neutrophils were counted after harvesting cells from articular cavities 24 hours after mBSA challenge. Results were presented as neutrophil numbers per cavity (mean±SEM). Arthritis was analyzed histologically 28 days after initial immunization (experimental endpoints). Knee joints were dissected and fixed in 10% buffered formalin for 3 days. […] Sections were examined by two independent observers and graded blindly using a semi-quantitative score from 0 to 3 (0, no; 1, mild; 2, moderate; 3, severe alterations) for the extent of (a) synovial lining layer hyperplasia and (b) infiltration of leukocytes into synovial membrane/joint space (as measures of joint inflammation); and (c) pannus formation and necrosis/erosion of cartilage (as a measure of joint destruction). […]

[4] = test system: NODf mice; test: Type I diabetes onset in NOD female mice; format: in vivo; details: oral 1MT, no other treatment
Excerpt: IDO slows T1D progression in a subset of NODf mice (FIG. 10 (-▴-)), as IDO inhibitor accelerated disease onset in at least 50% of NOD female mice.

Cn1cc(C[C@@H](N)C(=O)O)c2ccccc21 [1MT, 1-methyl-[D]-tryptophan]
effect of IDO inhibitor on suppressive effects of DNP treatment [1]: abrogated | effect of adding 1MT on T cell responses [2]: restored robust T cell responses | effect of oral 1MT on ameliorative effects of pAT/PEI therapy [3]: reversed | mice that developed diabetes faster than control [4]: 50% | mice that developed diabetes faster than control ([4]; listed as IDO inhibitor): at least 50%
